Results published in patent publication US20250195461A1, “Fibrate Compositions for Treating Inflammation and Neuroinflammation” (TRx Biosciences Limited, priority 2022, published 2025).

Assays:
[1] = cited from earlier work
[2] = reported value; cited from earlier work
[3] = Miscibility / self-emulsification in dissolution media modelling ICH dissolution testing; format: physicochemical; conditions: 1 g of 100% or 75% preparation in 1 L PBS with […] curcumin, 37° C., 300 rpm 10 min, then 10 min without stirring
Protocol: To assess whether oleic acid could self-emulsify at the concentrations used in the disclosed pharmaceutical compositions, experiments was performed that were designed to model dissolution testing according to International Council for Harmonisation (ICH) guidelines. One liter of a dissolution media comprising phosphate buffered saline (PBS) and 2.5% curcumin was warmed to 37° C. and constant stirring at 300 rpm maintained. Curcumin was added as a coloring agent and was very effective at visualizing the distribution of lipids through the dissolution media. Miscibility experiments were performed using two concentrations of oleic acid nominally above the CMC concentration for this fatty acid. In one series of experiments, 1 g of 100% oleic acid was added to the dissolution media. The control compound was 1 g of 100% MAISINE™ CC. In a second series of experiments 1 g of 75% oleic acid (diluted with 250 mg of MAISINE™ CC) was added to the dissolution media. The control compound was 1 g of 75% MAISINE™ CC. The miscibility of oleic acid and MAISINE™ CC was assessed by observing the dissolution media for 10 minutes with constant stirring and then 10 minutes without stirring. Photographs were taken at time 0, 1, 2, 3, 4, 5 and 10 minutes during the stirring phase and 2, 4 and 10 minutes after stirring ceased.

| Structure (SMILES) | log P [1] | critical micellar concentration (CMC) [2] [µM] | miscibility in dissolution media [3] |
| --- | --- | --- | --- |
| CC(C)(Oc1ccc(Cl)cc1)C(=O)OCCCOC(=O)C(C)(C)Oc1ccc(Cl)cc1 [simfibrate] | 6.2 | – | – |
| CN(C)C(=O)CCCOC(=O)C(C)(C)Oc1ccc(Cl)cc1 [clofibride] | 2.8 | – | – |
| CCCCCCCCCCCCCCCCCC(=O)[O-].[Na+] [sodium stearate] | – | 71 | – |
| CC(C)(Oc1ccc(C2CCCc3ccccc32)cc1)C(=O)O (centres unmarked) [nafenopin] | 4.9 | – | – |
| CC(C)(Oc1ccc(C(=O)c2ccc(Cl)cc2)cc1)C(=O)O [fenofibric acid] | 4.4 | – | – |
| CC(C)(Oc1ccc(C2CC2(Cl)Cl)cc1)C(=O)O (centres unmarked) [ciprofibrate] | 3.6 | – | – |
| CC(C)(Oc1ccc(Cl)cc1)C(=O)OCCCOC(=O)c1cccnc1 [ronifibrate] | 3.9 | – | – |
| CCC(C)(Oc1ccc(C2(c3ccc(OC(C)(CC)C(=O)O)cc3)CCCCC2)cc1)C(=O)O (centres unmarked) [clinofibrate] | 7.5 | – | – |
| Cc1ccc(C)c(OCCCC(C)(C)C(=O)O)c1 [gemfibrozil] | 4.4 | – | – |
| CC(C)(Oc1ccc(CCNC(=O)c2ccc(Cl)cc2)cc1)C(=O)O [bezafibrate] | 4.0 | – | – |
| CC(C)(Oc1ccc(Cl)cc1)C(=O)OCCOC(=O)c1cccnc1 [etofibrate] | 3.5 | – | – |
| CCCCCCCC/C=C\CCCCCCCC(=O)O [oleic acid] | – | 2300 | not miscible |
| CCOC(=O)C(C)(C)Oc1ccc(Cl)cc1 [clofibrate] | 3.4 | – | – |
